Results published in patent US20240132498A1, “CRYSTALLINE FORMS OF 5-(3,4-DIFLUOROBENZYL)-8-((1R,4R)-4-METHYLCYCLOHEXYL)-6,9-DIOXO-2,5,8-TRIAZASPIRO[3.5]NONANE-2-CARBALDEHYDE” (Cytokinetics, Incorporated, priority 2022, published 2024).

Columns and labels:
CYP1A2 = biological target: T1, CYP1A2 (Homo sapiens, UniProt P05177); assay: Time-dependent inhibition of CYP450 enzymes in human liver microsomes: CYP1A2; type: in vitro ADME
T1 construct: from tissue; host or cells: pooled human liver microsomes
T1 sequence (P05177 1-516): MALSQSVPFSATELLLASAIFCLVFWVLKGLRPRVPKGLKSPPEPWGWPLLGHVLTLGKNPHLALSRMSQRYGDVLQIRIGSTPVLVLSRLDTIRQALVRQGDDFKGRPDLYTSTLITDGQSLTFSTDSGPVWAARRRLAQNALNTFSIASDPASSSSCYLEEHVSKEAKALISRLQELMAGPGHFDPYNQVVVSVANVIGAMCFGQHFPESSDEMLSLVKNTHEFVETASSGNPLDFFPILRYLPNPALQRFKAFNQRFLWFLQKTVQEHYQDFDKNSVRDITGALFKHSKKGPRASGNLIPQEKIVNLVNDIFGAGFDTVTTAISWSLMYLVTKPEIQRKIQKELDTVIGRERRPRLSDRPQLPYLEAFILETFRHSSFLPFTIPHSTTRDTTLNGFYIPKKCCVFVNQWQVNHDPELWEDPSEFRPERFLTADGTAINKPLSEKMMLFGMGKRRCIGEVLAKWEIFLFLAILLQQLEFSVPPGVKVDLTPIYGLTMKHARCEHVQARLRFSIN
Method: (§1) An assessment of the time-dependent Inhibitory Potential of the test compounds against Principal Human Cytochrome P450 Isozymes using Human Liver Microsomes was also carried out using standard methods (Grimm et al, Drug Metab. Dispos., Jul; 37(7):1355-70. doi: 10.1124/dmd.109.026716, 2009). Pooled human microsomes and selective CYP probe substrates were used for in vitro assessment of test compounds at 25 and 50 μM as time-dependent inhibitors of […] human hepatic cytochrome P450 isozymes (CYP1A2, 2B6, 2C9, 2C19, 2D6, and 3A4). LC-MS/MS was used to quantify metabolite formation. The inhibition of each P450 enzyme in human liver microsomes was measured as the percentage decrease in the activity of marker metabolite formation as measured by LC-MS/MS compared to non-inhibited controls (=100% activity) at time zero and after 30 minutes incubation. The occurrence of any time dependent inhibition was then expressed as the fold change in enzyme activity at time zero relative to the activity after 30 minutes incubation. The time dependent inhibition for the compound 5-(3,4-difluorobenzyl)-8-((1 r,4r)-4-methylcyclohexyl)-6,9-dioxo-2,5, 8-triazaspiro [3.5]nonane-2-carbaldehyde (Compound 1) against CYP1A2, […], CYP2C8, CYP2C9, CYP2C19, CYP2D6, CYP3A4-M and CYP3A4-T is shown in Table B-12.

CYP2D6 = biological target: T2, CYP2D6 (Homo sapiens, UniProt P10635); assay: Time-dependent inhibition of CYP450 enzymes in human liver microsomes: CYP2D6; type: in vitro ADME; settings: for fold change in activity (time dependent inhibition), 2D6: human liver microsomes
T2 construct: from tissue; host or cells: pooled human liver microsomes
Method: as §1

[1] = Dog cassette dosing IV pharmacokinetics; type: in vivo; settings: plasma, male beagle dogs
Method: Non-naïve male beagle dogs (8 months to 3 years of age, body weight 8-14 kg) sourced from Jiangsu Johnsen Bioresource CO. and/or Beijing Rixinkeji CO., LTD and/or Beijing Marshall Biotechnology CO., LTD were used in this study. All animals for IV administration had free access to food and water. The IV dose solution was prepared in 10% DMA/50% PG/40% HP0CD solution (40% w/v aqueous HP0CD) at a concentration of 0.2 mg/mL. Concentrations of IV dose was measured at the end of the study. PK parameters were calculated using the nominal dose values if the measured values were within 20% of the nominal values. Blood samples were collected by venipuncture of peripheral veins except the dosing vein at pre-dose, 5 15, 30 min, 1, 2, 4, 6, 8 and 24 h post-dose. Blood samples were centrifuged and resultant plasma was frozen for bioanalysis. Plasma samples were stored at −80° C. before analysis. Plasma samples were analyzed for compound concentrations using the LC/MS/MS method. Briefly, a 50 p L aliquot of each plasma sample was mixed with 100 μL of acetonitrile that contained an internal standard. The mixture was vortexed and centrifuged. Ten (10) μL of the resulting solution was injected onto a reverse-phase C18 column and the resultant peaks detected on a LC/MS/MS equipped with a turbo ionspray ionization source. Sample concentrations below the limit of quantification (BLQ) were treated as zero for PK calculations. […] The elimination rate constant (k) was calculated as the absolute value of the slope of the linear regression of logarithm (log) of the concentration versus time for the last three data points of the concentration-time profiles. Apparent elimination half-life (t½) values were calculated as 1n(2)/k. […] AUC values were calculated from the dosing time to the last measurable concentration. AUC∞ values were calculated as the sum of the corresponding AUC and the ratio of the last detectable concentration divided by k. Plasma clearance (CL) was calculated from Dose/AUC.. […] Vss was calculated from MRT∞×CL. Maximum concentration (Cmax) and time to reach Cmax (tmax) were recorded as observed. […]

T2 sequence (P10635 whole entry): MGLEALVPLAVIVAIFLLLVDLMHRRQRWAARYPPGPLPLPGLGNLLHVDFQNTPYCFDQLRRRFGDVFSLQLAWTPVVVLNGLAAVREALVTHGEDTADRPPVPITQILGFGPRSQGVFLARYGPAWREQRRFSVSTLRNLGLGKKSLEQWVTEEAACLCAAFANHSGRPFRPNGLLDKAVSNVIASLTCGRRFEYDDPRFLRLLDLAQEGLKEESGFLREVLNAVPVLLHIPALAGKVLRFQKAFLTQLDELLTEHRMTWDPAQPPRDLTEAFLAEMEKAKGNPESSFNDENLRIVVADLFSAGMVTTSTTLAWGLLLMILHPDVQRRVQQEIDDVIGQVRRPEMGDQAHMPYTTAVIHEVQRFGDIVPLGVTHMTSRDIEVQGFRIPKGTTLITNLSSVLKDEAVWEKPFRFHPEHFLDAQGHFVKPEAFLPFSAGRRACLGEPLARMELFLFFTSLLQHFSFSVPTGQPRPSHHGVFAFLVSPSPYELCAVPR

- (% Activity NADPH T0)/(% Activity NADPH T30) (CYP1A2; CYP1A2, 25 μM): 1.1
- (% Activity NADPH T0)/(% Activity NADPH T30) (CYP1A2; CYP1A2, 50 μM): 1.0
- activity at 30 min, 25 µM (CYP1A2; human, pooled human liver microsomes, CYP1A2, 25 μM, 30 minutes incubation, read-out: % Activity NADPH T30): 90%
- activity at 0 min, 25 µM (CYP1A2; human, pooled human liver microsomes, CYP1A2, 25 μM, time zero, read-out: % Activity NADPH T0): 95%
- activity at 30 min, 50 µM (CYP1A2; human, pooled human liver microsomes, CYP1A2, 50 μM, 30 minutes incubation, read-out: % Activity NADPH T30): 85%
- activity at 0 min, 50 µM (CYP1A2; human, pooled human liver microsomes, CYP1A2, 50 μM, time zero, read-out: % Activity NADPH T0): 86%
- (% Activity NADPH T0)/(% Activity NADPH T30) (CYP2D6; CYP2D6, 25 μM): 1.3
- (% Activity NADPH T0)/(% Activity NADPH T30) (CYP2D6; CYP2D6, 50 μM): 1.1
- fold change in activity (time dependent inhibition), 2D6 (CYP2D6; 25 μM): 1.3 fold
- fold change in activity (time dependent inhibition), 2D6 (CYP2D6; 50 μM): no change in activity
- activity at 30 min, 25 µM (CYP2D6; human, pooled human liver microsomes, CYP2D6, 25 μM, 30 minutes incubation, read-out: % Activity NADPH T30): 90%
- activity at 0 min, 25 µM (CYP2D6; human, pooled human liver microsomes, CYP2D6, 25 μM, time zero, read-out: % Activity NADPH T0): 118%
- activity at 30 min, 50 µM (CYP2D6; human, pooled human liver microsomes, CYP2D6, 50 μM, 30 minutes incubation, read-out: % Activity NADPH T30): 88%
- activity at 0 min, 50 µM (CYP2D6; human, pooled human liver microsomes, CYP2D6, 50 μM, time zero, read-out: % Activity NADPH T0): 93%
- clearance [1]: 5.12 mL/min/kg
- half-life [1]: 11.8 h
- Vd ([1]; read-out: Vss): 4.48 L/kg
SMILES: C[C@H]1CC[C@H](N2CC(=O)N(Cc3ccc(F)c(F)c3)C3(CN(C=O)C3)C2=O)CC1 [Compound 1, 5-(3,4-difluorobenzyl)-8-((1r,4r)-4-methylcyclohexyl)-6,9-dioxo-2,5,8-triazaspiro[3.5]nonane-2-carbaldehyde]
